Values of other authors, collected in patent publication US11839217B2, “Composition comprising a bioactive molecule” (EUCARYO BEHEER B.V., priority 2016, dated 2023).

For `C[C@@H]1C/C=C/C=C/C=C/C=C/[C@H](O[C@@H]2O[C@H](C)[C@@H](O)[C@H](N)[C@@H]2O)C[C@@H]2O[C@](O)(C[C@@H](O)C[C@H]3O[C@@H]3/C=C/C(=O)O1)C[C@H](O)[C@H]2C(=O)O` [natamycin], the solubility in ethanol (ethanol) is listed as 40 to 1200 µg/mL and the solubility in water (water) is listed as 30 to 50 µg/mL.
